# Calls of active or inactive are those of the source. The calls are words filed in the database; no cut-off is given here.
# Tests used:
# Assay type in all cases: cell-based
# [1] = biological target: T1, Transient receptor potential cation channel subfamily A member 1 (Homo sapiens, UniProt O75762); assay: Antagonist activity at full length human TRPA1 transfected in HEK293F cells assessed as blockade of MO-induced TRPA1 channel activation by measuring Ca2+ influx in presence of 30 uM MO by FLIPR calcium assay
# [2] = biological target: T2, Transient receptor potential cation channel subfamily A member 1 (Mus musculus, UniProt Q8BLA8); assay: Antagonist activity at full length mouse TRPA1 transfected in HEK293F cells assessed as blockade of MO-induced TRPA1 channel activation by measuring Ca2+ influx in presence of 30 uM MO by FLIPR calcium assay
# [3] = biological target: T3, Transient receptor potential cation channel subfamily A member 1 (Macaca mulatta, UniProt A0A1D5QMT1); assay: Antagonist activity at full length rhesus monkey TRPA1 transfected in HEK293F cells assessed as blockade of MO-induced TRPA1 channel activation by measuring Ca2+ influx in presence of 120 uM MO by FLIPR calcium assay
# [4] = biological target: T4, Transient receptor potential cation channel subfamily A member 1 (Rattus norvegicus, UniProt Q6RI86); assay: Antagonist activity at full length rat TRPA1 transfected in HEK293F cells assessed as blockade of MO-induced TRPA1 channel activation by measuring Ca2+ influx in presence of 30 uM MO by FLIPR calcium assay
# [5] = biological target: T1, Transient receptor potential cation channel subfamily A member 1; assay: Agonist activity at full length human TRPA1 transfected in HEK293F cells assessed as increase in Ca2+ influx by FLIPR calcium assay relative to MO; conditions: filed as agonist
# [6] = biological target: Transient receptor potential cation channel subfamily A member 1 (Rattus norvegicus) (UniProt Q6RI86); assay: Agonist activity at full length rat TRPA1 transfected in HEK293F cells assessed as increase in Ca2+ influx by FLIPR calcium assay relative to MO; conditions: filed as agonist
# [7] = biological target: T3, Transient receptor potential cation channel subfamily A member 1; assay: Agonist activity at rhesus monkey TRPA1 transfected in HEK293F cells assessed as increase in Ca2+ influx by FLIPR calcium assay
# [8] = biological target: T1, Transient receptor potential cation channel subfamily A member 1; assay: Agonist activity at full length human TRPA1 transfected in HEK293F cells assessed as increase in Ca2+ influx by FLIPR calcium assay
# [9] = biological target: Transient receptor potential cation channel subfamily A member 1 (Mus musculus) (UniProt Q8BLA8); assay: Agonist activity at full length mouse TRPA1 transfected in HEK293F cells assessed as increase in Ca2+ influx by FLIPR calcium assay relative to control; conditions: filed as agonist
# [10] = biological target: T5, Transient receptor potential cation channel subfamily A member 1 (Macaca mulatta) (UniProt A0A1D5QMT1); assay: Agonist activity at rhesus monkey TRPA1 transfected in HEK293F cells assessed as increase in Ca2+ influx by FLIPR calcium assay relative to MO; conditions: filed as agonist
# [11] = biological target: T2, Transient receptor potential cation channel subfamily A member 1; assay: Agonist activity at full length mouse TRPA1 transfected in HEK293F cells assessed as increase in Ca2+ influx by FLIPR calcium assay
# [12] = biological target: T4, Transient receptor potential cation channel subfamily A member 1; assay: Agonist activity at full length rat TRPA1 transfected in HEK293F cells assessed as increase in Ca2+ influx by FLIPR calcium assay
# [13] = biological target: T3, Transient receptor potential cation channel subfamily A member 1; assay: Activation of full length rhesus monkey TRPA1 transfected in HEK293F cells assessed as 1 mM of MO-induced current Blockade at -60 mV by whole-cell recording analysis
# [14] = biological target: T3, Transient receptor potential cation channel subfamily A member 1; assay: Activation of full length rhesus monkey TRPA1 transfected in HEK293F cells assessed as 120 uM of MO-induced current Blockade at -60 mV by whole-cell recording analysis
# [15] = biological target: Transient receptor potential cation channel subfamily A member 1 (Mus musculus) (UniProt Q8BLA8); assay: Agonist activity at full length mouse TRPA1 transfected in HEK293F cells assessed as blockade of MO-induced TRPA1 channel activation by measuring Ca2+ influx in presence of 30 uM MO by FLIPR calcium assay; conditions: filed as agonist
# [16] = biological target: Transient receptor potential cation channel subfamily A member 1 (Rattus norvegicus) (UniProt Q6RI86); assay: Agonist activity at full length rat TRPA1 transfected in HEK293F cells assessed as blockade of MO-induced TRPA1 channel activation by measuring Ca2+ influx in presence of 30 uM MO by FLIPR calcium assay; conditions: filed as agonist
# [17] = biological target: T5, Transient receptor potential cation channel subfamily A member 1 (Macaca mulatta); assay: Antagonist activity at rhesus monkey TRPA1 transfected in HEK293F cells assessed as increase in Ca2+ influx by FLIPR calcium assay; conditions: filed as antagonist
# [18] = biological target: T1, Transient receptor potential cation channel subfamily A member 1; assay: Antagonist activity at full length human TRPA1 transfected in HEK293F cells assessed as increase in Ca2+ influx by FLIPR calcium assay; conditions: filed as antagonist
# [19] = biological target: T1, Transient receptor potential cation channel subfamily A member 1; assay: Agonist activity at full length human TRPA1 transfected in HEK293F cells assessed as increase in Ca2+ influx in presence of 30 to 1000 uM MO by FLIPR calcium assay
# T5 sequence (A0A1D5QMT1 as listed by the source): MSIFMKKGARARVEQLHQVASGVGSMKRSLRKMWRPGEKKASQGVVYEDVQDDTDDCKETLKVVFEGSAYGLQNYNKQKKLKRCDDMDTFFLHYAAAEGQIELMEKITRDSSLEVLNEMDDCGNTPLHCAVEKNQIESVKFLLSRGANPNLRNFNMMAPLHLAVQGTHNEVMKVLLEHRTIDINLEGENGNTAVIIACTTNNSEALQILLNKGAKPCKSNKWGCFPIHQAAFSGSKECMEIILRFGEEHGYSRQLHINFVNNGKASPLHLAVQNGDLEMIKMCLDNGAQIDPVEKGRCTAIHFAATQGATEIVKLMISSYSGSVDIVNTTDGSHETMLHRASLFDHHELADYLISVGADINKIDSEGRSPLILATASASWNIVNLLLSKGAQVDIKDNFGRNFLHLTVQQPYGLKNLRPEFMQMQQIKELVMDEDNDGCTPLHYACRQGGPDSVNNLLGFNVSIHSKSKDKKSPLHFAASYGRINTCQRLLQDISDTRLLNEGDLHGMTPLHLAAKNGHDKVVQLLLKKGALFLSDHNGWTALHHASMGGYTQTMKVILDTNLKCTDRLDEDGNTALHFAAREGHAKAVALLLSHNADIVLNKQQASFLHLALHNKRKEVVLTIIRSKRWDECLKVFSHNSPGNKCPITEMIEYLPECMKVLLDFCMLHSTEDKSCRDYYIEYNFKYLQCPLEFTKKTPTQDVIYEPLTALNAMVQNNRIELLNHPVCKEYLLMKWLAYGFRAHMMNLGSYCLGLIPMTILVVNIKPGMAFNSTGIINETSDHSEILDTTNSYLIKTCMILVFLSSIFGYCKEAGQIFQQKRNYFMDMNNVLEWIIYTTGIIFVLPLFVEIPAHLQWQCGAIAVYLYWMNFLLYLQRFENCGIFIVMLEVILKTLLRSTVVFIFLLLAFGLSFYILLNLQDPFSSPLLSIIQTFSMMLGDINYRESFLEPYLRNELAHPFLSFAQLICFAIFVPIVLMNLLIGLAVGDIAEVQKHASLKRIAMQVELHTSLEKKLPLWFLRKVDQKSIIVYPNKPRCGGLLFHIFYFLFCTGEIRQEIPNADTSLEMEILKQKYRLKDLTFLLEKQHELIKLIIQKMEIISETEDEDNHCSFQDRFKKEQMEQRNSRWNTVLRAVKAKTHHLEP
# T3 sequence (A0A1D5QMT1 whole entry): as the sequence (A0A1D5QMT1 as listed by the source) above
# T2 sequence (Q8BLA8 whole entry): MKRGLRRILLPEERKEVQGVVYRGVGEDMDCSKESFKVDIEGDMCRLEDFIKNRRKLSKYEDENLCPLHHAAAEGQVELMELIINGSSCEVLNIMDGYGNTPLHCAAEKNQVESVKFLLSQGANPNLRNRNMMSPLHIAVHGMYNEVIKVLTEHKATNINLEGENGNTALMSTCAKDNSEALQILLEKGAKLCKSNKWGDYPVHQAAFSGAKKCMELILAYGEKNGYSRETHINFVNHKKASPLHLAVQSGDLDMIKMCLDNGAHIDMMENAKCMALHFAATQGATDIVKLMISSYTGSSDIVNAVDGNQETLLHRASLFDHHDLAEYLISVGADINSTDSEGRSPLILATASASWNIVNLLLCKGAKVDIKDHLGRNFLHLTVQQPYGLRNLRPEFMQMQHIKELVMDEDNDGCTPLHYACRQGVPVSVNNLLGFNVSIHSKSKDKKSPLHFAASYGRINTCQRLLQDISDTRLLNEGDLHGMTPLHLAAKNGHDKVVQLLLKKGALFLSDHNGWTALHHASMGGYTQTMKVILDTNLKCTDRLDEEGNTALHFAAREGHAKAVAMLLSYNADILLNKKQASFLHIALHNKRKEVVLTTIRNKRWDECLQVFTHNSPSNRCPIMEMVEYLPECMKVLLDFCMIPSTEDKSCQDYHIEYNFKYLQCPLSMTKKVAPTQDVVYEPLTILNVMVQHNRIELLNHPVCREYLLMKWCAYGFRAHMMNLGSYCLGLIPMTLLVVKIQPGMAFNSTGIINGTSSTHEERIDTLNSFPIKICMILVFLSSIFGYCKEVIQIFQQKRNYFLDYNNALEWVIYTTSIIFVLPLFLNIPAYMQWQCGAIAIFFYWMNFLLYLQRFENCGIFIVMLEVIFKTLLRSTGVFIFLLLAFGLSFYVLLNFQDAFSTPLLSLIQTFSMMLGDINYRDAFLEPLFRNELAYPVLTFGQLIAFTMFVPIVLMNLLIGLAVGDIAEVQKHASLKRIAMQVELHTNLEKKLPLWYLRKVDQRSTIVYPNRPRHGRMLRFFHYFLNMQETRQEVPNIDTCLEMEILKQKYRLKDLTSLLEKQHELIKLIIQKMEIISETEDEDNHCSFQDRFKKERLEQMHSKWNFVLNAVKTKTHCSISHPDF
# Transient receptor potential cation channel subfamily A member 1 (Mus musculus), sequence (Q8BLA8 whole entry): as above
# T1 sequence (O75762 whole entry): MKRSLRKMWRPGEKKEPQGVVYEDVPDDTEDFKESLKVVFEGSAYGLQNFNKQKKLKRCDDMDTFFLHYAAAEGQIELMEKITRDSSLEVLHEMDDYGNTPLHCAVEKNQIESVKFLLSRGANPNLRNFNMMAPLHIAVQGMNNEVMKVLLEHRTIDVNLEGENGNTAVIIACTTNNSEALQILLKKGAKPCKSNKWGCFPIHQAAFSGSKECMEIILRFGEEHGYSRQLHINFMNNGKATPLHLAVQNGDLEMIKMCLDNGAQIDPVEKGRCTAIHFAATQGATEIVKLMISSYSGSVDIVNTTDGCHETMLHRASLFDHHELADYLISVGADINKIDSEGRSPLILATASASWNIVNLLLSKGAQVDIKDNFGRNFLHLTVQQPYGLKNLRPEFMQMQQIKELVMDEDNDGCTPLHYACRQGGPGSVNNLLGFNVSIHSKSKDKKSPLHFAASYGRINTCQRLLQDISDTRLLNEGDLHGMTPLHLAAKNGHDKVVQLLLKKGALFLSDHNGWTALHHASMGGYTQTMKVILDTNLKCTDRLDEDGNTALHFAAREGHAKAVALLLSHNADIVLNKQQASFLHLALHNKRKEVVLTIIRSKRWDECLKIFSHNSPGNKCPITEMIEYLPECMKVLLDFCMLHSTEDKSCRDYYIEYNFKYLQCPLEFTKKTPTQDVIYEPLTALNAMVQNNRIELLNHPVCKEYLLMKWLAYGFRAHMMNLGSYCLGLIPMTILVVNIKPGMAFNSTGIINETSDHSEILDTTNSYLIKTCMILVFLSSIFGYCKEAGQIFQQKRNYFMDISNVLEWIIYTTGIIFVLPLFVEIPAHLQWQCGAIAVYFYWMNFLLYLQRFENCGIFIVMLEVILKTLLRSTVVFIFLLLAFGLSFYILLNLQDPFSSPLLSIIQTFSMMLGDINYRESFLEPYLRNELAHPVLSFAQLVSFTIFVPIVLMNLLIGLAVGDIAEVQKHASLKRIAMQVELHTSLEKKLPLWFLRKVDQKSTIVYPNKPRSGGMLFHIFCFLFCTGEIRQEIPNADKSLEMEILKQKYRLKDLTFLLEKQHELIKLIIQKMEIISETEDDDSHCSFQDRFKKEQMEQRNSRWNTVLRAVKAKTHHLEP
# T4 sequence (Q6RI86 whole entry): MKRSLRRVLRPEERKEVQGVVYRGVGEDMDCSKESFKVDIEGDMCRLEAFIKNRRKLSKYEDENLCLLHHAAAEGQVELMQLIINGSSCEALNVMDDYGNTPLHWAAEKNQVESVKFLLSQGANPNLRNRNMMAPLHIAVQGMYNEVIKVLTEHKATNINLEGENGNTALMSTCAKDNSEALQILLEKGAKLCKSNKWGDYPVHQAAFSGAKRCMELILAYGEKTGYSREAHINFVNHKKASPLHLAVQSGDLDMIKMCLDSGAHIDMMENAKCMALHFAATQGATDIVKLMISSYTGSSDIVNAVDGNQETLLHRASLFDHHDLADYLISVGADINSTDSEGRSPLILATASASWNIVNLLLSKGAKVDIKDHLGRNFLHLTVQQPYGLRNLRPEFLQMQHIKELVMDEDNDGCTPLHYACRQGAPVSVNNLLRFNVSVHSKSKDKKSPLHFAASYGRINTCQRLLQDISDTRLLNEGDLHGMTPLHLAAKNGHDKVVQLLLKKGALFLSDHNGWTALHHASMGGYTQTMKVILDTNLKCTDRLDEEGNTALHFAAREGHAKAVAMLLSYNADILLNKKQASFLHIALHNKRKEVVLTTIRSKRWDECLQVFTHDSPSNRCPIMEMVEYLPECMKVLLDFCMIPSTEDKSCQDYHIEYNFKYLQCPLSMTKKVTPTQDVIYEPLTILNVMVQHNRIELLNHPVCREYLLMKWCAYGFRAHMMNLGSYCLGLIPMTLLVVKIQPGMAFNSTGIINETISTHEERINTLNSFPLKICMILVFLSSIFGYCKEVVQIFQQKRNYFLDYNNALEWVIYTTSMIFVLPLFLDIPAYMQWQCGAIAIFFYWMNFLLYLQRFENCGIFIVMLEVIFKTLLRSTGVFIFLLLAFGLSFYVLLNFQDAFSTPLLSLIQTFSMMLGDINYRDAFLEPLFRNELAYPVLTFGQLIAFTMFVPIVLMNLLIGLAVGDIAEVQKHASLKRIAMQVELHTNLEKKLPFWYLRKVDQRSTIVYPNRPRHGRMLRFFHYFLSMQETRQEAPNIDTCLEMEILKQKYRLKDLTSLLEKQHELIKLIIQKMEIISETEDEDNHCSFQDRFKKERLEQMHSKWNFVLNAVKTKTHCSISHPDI
# Transient receptor potential cation channel subfamily A member 1 (Rattus norvegicus), sequence (Q6RI86 whole entry): as above
Structure (SMILES),IC50 [1],IC50 [2],IC50 [3],IC50 [4],Emax [5],Emax [6],EC50 [7],EC50 [8],Emax [9],Emax [10],EC50 [11],EC50 [12],IC50 [13],IC50 [14],Activity [15],Activity [16],Activity [17],Activity [18],Activity [19]
CC(C)c1ccc(NC(=O)Cn2cnc3c2c(=O)n(C)c(=O)n3C)cc1,7.4 µM,6.8 µM,7.3 µM,7.6 µM,,,,,,,,,,,,,,,
O=C/C=C/c1ccccc1,,,,,81%,89%,23.9 µM,12.5 µM,71%,84%,3.4 µM,5.4 µM,,,,,,,
CCCCC/C=C/C=C1/C(=O)C=C[C@@H]1C/C=C\CCCC(=O)O,,,,,75%,70%,> 100 µM,40.4 µM,65%,,56.4 µM,19.9 µM,,,,,,,
CCCCCC(O)/C=C/C=O (configuration not stated) [4-HYDROXYNON-2-ENAL],,,,,80%,76%,> 100 µM,9.9 µM,72%,,6.6 µM,6 µM,,,,,,,
CCC(=N\O)/C(C)=C/c1ccc(F)cc1 [A-079],,0.75 µM,0.6 µM,0.33 µM,,,,,,,,,1.63 µM,0.6 µM,,,,,
CC(=C\c1ccc(Cl)cc1)/C(C)=N/O [AP18 5],9.1 µM,33 µM,56.4 µM,39.9 µM,,,,,,,,,,,,,,,
Cn1c(=O)c2c(ncn2C)n(C)c1=O [CAFFEINE],988 µM,,> 1000 µM,,,44%,,,52%,,61.8 µM,95.9 µM,,,Active,Active,Active,Active,
CC1CCC(C(C)C)C(O)C1 (configuration not stated) [MENTHOL],> 1000 µM,951 µM,> 1000 µM,511 µM,80%,41%,> 300 µM,278 µM,40%,,5.2 µM,7.1 µM,,,,,,,inactive
CC(C)=CCC/C(C)=C/CC/C(C)=C/CSc1ccccc1C(=O)O [SALIRASIB],,,,,106%,89%,167 µM,4.9 µM,105%,112%,85.5 µM,102 µM,,,,,,,
NC(=O)c1cccc(-c2cccc(OC(=O)NC3CCCCC3)c2)c1 [URB-597],,,,,85%,72%,> 100 µM,7.5 µM,77%,,74.4 µM,129 µM,,,,,,,
